Data taken from US20240122179A1, “AUXINIC HERBICIDES AND METHODS OF USE THEREOF” (CORTEVA AGRISCIENCE LLC, priority 2021, published 2024).
Like-named read-outs stand apart in the source and are kept apart here.

Experiments:
[1] = Volatility of compounds measured by thermogravimetric analysis (TGA), rate of weight loss; assay type: physicochemical; settings: estimates of volatility
Source text: Briefly, the rate of weight loss measured in units of […]g/min can be used to determine vapor pressure as shown by the simplified equation: wherein, k is the intrinsic volatility and A is the surface area, Referring now to FIG. 2. A graph of weight loss as function of time for solid samples produces a linear curve; the slope of the curve is the rate of weight loss. When this method is used to measure the volatility of aqueous salt concentrates or liquid concentrates, the water or acetone present in the sample volatilizes before the sample of interest. The first linear loss region of the curve is the loss of water or acetone and the second linear region is characteristic of the sample of interest. In order to illustrate the difference in volatility between some of the compounds disclosed herein and the widely used herbicide dicamba, data from both the compounds and dicamba are presented Table 3 and in FIG. 1.

[2] = system: Conyza canadensis (L.) (ERICA); experiment: Postemergence herbicide evaluation, percent reduction in plant size vs untreated control, 21 days after treatment; assay type: in vivo, Conyza canadensis (L.) (Horseweed); settings: Erigeron canadensis, post-emergence, 504 h, ERICA, postemergence, read-out: Control/Injury; for pest or weed control at 140 g/ha: rate 140 g ae/ha; for pest or weed control at 280 g/ha: rate 280 g ae/ha
Procedure, shortened: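 Horseshoe-weed (horseweed) seedlings at 2 to 8 leaf stage in greenhouse (25-28° C, 16 h light), sprayed postemergence at 140 or 280 g ae/ha in acetone/DMSO-based spray solution, 187 L/ha track-sprayer. Randomized complete block, 3-4 replicates; plant size measured 21 days after treatment as percent reduction vs untreated controls.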

[3] = system: Amaranthus palmeri (AMAPA); experiment: as above; assay type: in vivo, Amaranthus palmeri (Palmer amaranth); settings: post-emergence, 504 h, postemergence, read-out: Control/Injury; for pest or weed control at 140 g/ha: rate 140 g ae/ha; for pest or weed control at 280 g/ha: rate 280 g ae/ha
Procedure, shortened: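 Greenhouse-grown Palmer amaranth (25 to 28° C, 16 h light) sprayed postemergence at the 2 to 8 leaf stage with 140 or 280 g ae/ha in acetone/DMSO-based solution containing crop oil concentrate, 187 L/ha by track sprayer. Three to four replicates; plant size measured 21 days after treatment as percent reduction versus untreated control.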

[4] = system: Kochia scoparia (KCHSC); experiment: as above; assay type: in vivo; settings: KCHSC, postemergence; for pest or weed control at 140 g/ha / pest or weed control at 280 g/ha: Bassia scoparia, post-emergence, 504 h, read-out: Control/Injury; for pest or weed control at 280 g/ha: rate 280 g ae/ha
Procedure, shortened: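 Greenhouse-grown plants (25-28 °C, 16 h light) at the 2 to 8 leaf stage were track-sprayed postemergence at 140 or 280 g ae/ha in acetone/DMSO-based spray solution with crop oil and surfactant, at 187 L/ha, in 3-4 randomized replicates.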

[5] = system: Ambrosia artemisiifolia (AMBEL); experiment: as above; assay type: in vivo, Ambrosia artemisiifolia (common ragweed); settings: post-emergence, 504 h, AMBEL, postemergence, read-out: Control/Injury; for pest or weed control at 140 g/ha: rate 140 g ae/ha; for pest or weed control at 280 g/ha: rate 280 g ae/ha
Procedure, shortened: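 Greenhouse-grown plants (25–28 °C, 16 h light) were sprayed postemergence at the 2–8 leaf stage with 140 or 280 g ae/ha in acetone/DMSO-based spray solution with crop oil and surfactant, at 187 L/ha by track sprayer. There were 3–4 replicates. Plant size was measured 21 days after treatment versus untreated plants.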

[6] = system: Amaranthus rudis (AMATA); experiment: as above; assay type: in vivo, Amaranthus rudis (tall water hemp); settings: Amaranthus tuberculatus, post-emergence, 504 h, AMATA, postemergence, read-out: Control/Injury; for pest or weed control at 140 g/ha: rate 140 g ae/ha; for pest or weed control at 280 g/ha: rate 280 g ae/ha
Procedure, shortened: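 Greenhouse-grown tall waterhemp (25-28° C, 16 h light) at the 2-8 leaf stage, treated by track sprayer at 187 L/ha with compound at 140 or 280 g ae/ha in acetone/DMSO-based spray solution with crop oil and surfactant. 3-4 replicates per treatment, randomized complete block; plant size reduction versus untreated control measured 21 days after treatment.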

[7] = percent reduction vs untreated control, 21 days after treatment
[8] = R-AMAPA, percent reduction vs untreated control, 21 days after treatment
[9] = percent reduction vs untreated, 21 days after treatment

COc1c(Cl)ccc(Cl)c1C(=O)OCc1ccc(COC(=O)c2c(Cl)ccc(Cl)c2OC)cc1 [Compound A-56]
Volatility [1]: 0.08 ng/min

COc1c(Cl)ccc(Cl)c1C(=O)O/N=C(\N)Cc1ccccc1 [Compound A-8]
Volatility [1]: 0.189 ng/min | pest or weed control at 140 g/ha [2, 7]: 98% | pest or weed control at 280 g/ha [2, 7]: 99%

COc1c(Cl)ccc(Cl)c1C(=O)O/N=C(\N)c1ccccc1 [Compound A-49]
pest or weed control at 140 g/ha [3, 8]: 95% | pest or weed control at 280 g/ha [3, 8]: 100% | pest or weed control at 140 g/ha ([4]; rate 140 g ae/ha): 82% | pest or weed control at 280 g/ha [4]: 100% | Volatility [1]: 0.08 ng/min | pest or weed control at 140 g/ha [2, 7]: 95% | pest or weed control at 280 g/ha [2, 7]: 98% | pest or weed control at 140 g/ha [5]: 98% | pest or weed control at 280 g/ha [5]: 99%

COc1c(Cl)ccc(Cl)c1C(=O)OCc1cccnc1 [Compound A-45]
Volatility [1]: 0.73 ng/min

COc1c(Cl)ccc(Cl)c1C(=O)O/N=C(\N)c1ccc(C)cc1 [Compound A-17]
Volatility [1]: 0.026 ng/min | pest or weed control at 140 g/ha [2, 7]: 94% | pest or weed control at 280 g/ha [2, 7]: 95%

COc1ccc(/C(N)=N/OC(=O)c2c(Cl)ccc(Cl)c2OC)cc1 [Compound A-20]
Volatility [1]: 0.04 ng/min

COc1c(Cl)ccc(Cl)c1C(=O)O/N=C(\N)c1ccc(Cl)c(Cl)c1 [Compound A-14]
Volatility [1]: 0.056 ng/min

COc1c(Cl)ccc(Cl)c1C(=O)O/N=C(\N)C1CCCCC1 [Compound A-6]
Volatility [1]: 0.064 ng/min | pest or weed control at 140 g/ha [2, 7]: 98% | pest or weed control at 280 g/ha [2, 7]: 98%

COc1c(Cl)ccc(Cl)c1C(=O)O/N=C(\C)c1ccccc1 [Compound A-46]
pest or weed control at 140 g/ha [3, 8]: 85% | pest or weed control at 280 g/ha [3, 8]: 80% | pest or weed control at 140 g/ha ([4]; rate 140 g ae/ha): 99% | pest or weed control at 280 g/ha [4]: 100% | Volatility [1]: 0.1 ng/min | pest or weed control at 140 g/ha [5]: 85% | pest or weed control at 280 g/ha [5]: 82%

COc1c(Cl)ccc(Cl)c1C(=O)OCOC(=O)c1c(Cl)ccc(Cl)c1OC [Compound A-53]
pest or weed control at 140 g/ha [3, 8]: 70% | pest or weed control at 280 g/ha [3, 8]: 98% | pest or weed control at 140 g/ha ([4]; rate 140 g ae/ha): 85% | pest or weed control at 280 g/ha [4]: 90% | Control/Injury ([4]; rate 140 g ae/ha): 85 | Volatility [1]: 0.19 ng/min | pest or weed control at 140 g/ha [5]: 60% | pest or weed control at 280 g/ha [5]: 70%

COc1c(Cl)ccc(Cl)c1C(=O)O/N=C(\N)c1ccco1 [Compound A-38]
Volatility [1]: 0.46 ng/min | pest or weed control at 140 g/ha [2, 7]: 89% | pest or weed control at 280 g/ha [2, 7]: 97%

COc1c(Cl)ccc(Cl)c1C(=O)OCCOCCOC(=O)c1c(Cl)ccc(Cl)c1OC [Compound A-55]
pest or weed control at 280 g/ha [4]: 15% | Volatility [1]: 0.24 ng/min | pest or weed control at 140 g/ha [5]: 25%

COc1c(Cl)ccc(Cl)c1C(=O)O/N=C(\N)C(C)C [Compound A-48]
pest or weed control at 140 g/ha [3, 8]: 90% | pest or weed control at 280 g/ha [3, 8]: 99% | pest or weed control at 140 g/ha ([4]; rate 140 g ae/ha): 90% | pest or weed control at 280 g/ha [4]: 100% | pest or weed control at 140 g/ha [6]: 60% | pest or weed control at 280 g/ha [6]: 90% | Volatility [1]: 0.38 ng/min | pest or weed control at 140 g/ha [5]: 85% | pest or weed control at 280 g/ha [5]: 100%

COc1c(Cl)ccc(Cl)c1C(=O)O/N=C(\N)c1ccccc1 [Compound A-150]
pest or weed control at 140 g/ha ([3]; AMAPA): 80% | pest or weed control at 280 g/ha ([3]; AMAPA): 78% | pest or weed control at 140 g/ha ([4]; rate 140 g ae/ha, percent reduction vs untreated, 21 days after treatment): 88% | pest or weed control at 280 g/ha [4, 9]: 99% | Volatility [1]: 0.08 ng/min | pest or weed control at 140 g/ha [2]: 98% | pest or weed control at 280 g/ha [2]: 97% | pest or weed control at 140 g/ha [2, 9]: 95% | pest or weed control at 280 g/ha [2, 9]: 98%

COc1c(Cl)ccc(Cl)c1C(=O)O/N=C(\N)c1ccsc1 [Compound A-37]
Volatility [1]: 0.145 ng/min | pest or weed control at 140 g/ha [2, 7]: 87% | pest or weed control at 280 g/ha [2, 7]: 96%

COc1c(Cl)ccc(Cl)c1C(=O)O/N=C(\N)c1cncnc1 [Compound A-35]
Volatility [1]: 0.022 ng/min | pest or weed control at 140 g/ha [2, 7]: 96% | pest or weed control at 280 g/ha [2, 7]: 99%

COc1c(Cl)ccc(Cl)c1C(=O)O/N=C(\N)CC(C)C [Compound A-59]
Volatility [1]: 0.086 ng/min | pest or weed control at 140 g/ha [2, 7]: 94% | pest or weed control at 280 g/ha [2, 7]: 99%

COc1c(Cl)ccc(Cl)c1C(=O)OCOC(=O)c1ccccc1 [Compound A-51]
pest or weed control at 140 g/ha [3, 8]: 95% | pest or weed control at 280 g/ha [3, 8]: 95% | pest or weed control at 140 g/ha ([4]; rate 140 g ae/ha): 92% | pest or weed control at 280 g/ha [4]: 99% | Volatility [1]: 0.25 ng/min | pest or weed control at 140 g/ha [5]: 90% | pest or weed control at 280 g/ha [5]: 95%

COc1c(Cl)ccc(Cl)c1C(=O)O/N=C(\N)c1ccc2ccoc2c1 [Compound A-26]
Volatility [1]: 0.0034 ng/min | pest or weed control at 140 g/ha [2, 7]: 93% | pest or weed control at 280 g/ha [2, 7]: 93%

COc1c(Cl)ccc(Cl)c1C(=O)O/N=C(\N)c1cccnc1 [Compound A-50]
pest or weed control at 140 g/ha [3, 8]: 95% | pest or weed control at 280 g/ha [3, 8]: 99% | pest or weed control at 140 g/ha ([4]; rate 140 g ae/ha): 99% | pest or weed control at 280 g/ha [4]: 99% | pest or weed control at 140 g/ha [6]: 95% | pest or weed control at 280 g/ha [6]: 97% | Volatility [1]: 0.09 ng/min | pest or weed control at 140 g/ha [5]: 90% | pest or weed control at 280 g/ha [5]: 100%

COc1c(Cl)ccc(Cl)c1C(=O)O/N=C(\N)c1ccncc1 [Compound A-33]
Volatility [1]: 0.015 ng/min | pest or weed control at 140 g/ha [2, 7]: 87% | pest or weed control at 280 g/ha [2, 7]: 93%

COc1ccccc1/C(N)=N/OC(=O)c1c(Cl)ccc(Cl)c1OC [Compound A-21]
Volatility [1]: 0.074 ng/min | pest or weed control at 140 g/ha [2, 7]: 95% | pest or weed control at 280 g/ha [2, 7]: 98%

COc1c(Cl)ccc(Cl)c1C(=O)O/N=C(\N)c1ccccc1Cl [Compound A-13]
Volatility [1]: 0.012 ng/min

COc1c(Cl)ccc(Cl)c1C(=O)O/N=C(\C)C/C(C)=N/OC(=O)c1c(Cl)ccc(Cl)c1OC [Compound A-58]
Volatility [1]: 0.11 ng/min

COc1c(Cl)ccc(Cl)c1C(=O)O/N=C(\N)c1ccc(Cl)cc1Cl [Compound A-15]
Volatility [1]: 0.0098 ng/min | pest or weed control at 140 g/ha [2, 7]: 98% | pest or weed control at 280 g/ha [2, 7]: 96%

COc1c(Cl)ccc(Cl)c1C(=O)O/N=C(\N)c1cccs1 [Compound A-36]
Volatility [1]: 0.417 ng/min | pest or weed control at 140 g/ha [2, 7]: 83% | pest or weed control at 280 g/ha [2, 7]: 98%

COc1c(Cl)ccc(Cl)c1C(=O)O/N=C(\N)c1ccccn1 [Compound A-34]
Volatility [1]: 0.039 ng/min | pest or weed control at 140 g/ha [2, 7]: 87% | pest or weed control at 280 g/ha [2, 7]: 97%

COc1c(Cl)ccc(Cl)c1C(=O)O/N=C(\N)c1ccc2ncccc2c1 [Compound A-25]
Volatility [1]: 0.021 ng/min | pest or weed control at 140 g/ha [2, 7]: 95% | pest or weed control at 280 g/ha [2, 7]: 90%
